The test system of data set [1] is A. terreus sensu stricto isolates. Put plainly: AMB MIC (EUCAST) of isolates used for time-kill. It counts as cell-based. Particulars: Aspergillus terreus. As for the experimental part:
Materials & Methods: Tolerance is the ability of a “susceptible isolate” to grow in the presence of AMB above the MIC; tolerant fungi are characterized by a longer minimum duration of killing time (MDK) than susceptible isolates. We investigated AMB-MDKs of A. terreus sensu stricto isolates (n = 4) representing susceptible (S < […]) and resistant (R > […]) phenotypes (EUCAST). Time-kill curve analysis (99% killing of the initial population) was performed in RPMI 1640 and AM3 media at different AMB concentrations, and in parallel, the germination rate was determined microscopically.

The next data set has as its system C. glabrata. In words: Antifungal susceptibility testing of blood culture isolate. It counts as cell-based, Candida glabrata. Particulars: Nakaseomyces glabratus. An excerpt:
Case presentation: A patient with a surgically corrected Tetralogy of Fallot and pulmonary valve replacement (BioPulmonic Conduit) was admitted to the cardiology ward for treatment of their progessively worsening symptomatic heart failure. Their medical history reports multiple other co-morbidities including supravalvular (prothetic pulmonary valve) stenosis, supraventricular tachycardia, atrial fibrillation, diabetes mellitus type I, and intellectual disability. No history of IV drug use or recent immunosuppressive therapy was reported. On admission they received diuretic treatment and a percutaneous intervention was planned to treat the supravalvular pulmonary stenosis. However, ten days after admission they developed fever (40.5 °C) with elevated C-reactive protein (237.9 mg/L) and leukocytosis (14.0 × 10^9/L). […] Anidulafungine IV was started and follow-up bloodcultures were taken routinely. The patient improved clinically and their inflammation markers normalized. However, the bloodcultures were persistently positive, albeit with periods of negative cultures, despite adequate treatment with high-dose anidulafungin 200 mg IV daily. International guidelines recommend surgery to treat Candida prostethic valve infective endocarditis and/or long-term suppressive therapy with antifungal drugs. […]

Data set [2] concerns C. auris. Put plainly: EUCAST EDef 7.3.1 MIC and checkerboard microdilution. It counts as cell-based, Candida auris. As for the experimental part:
Methods: We studied 22 C. auris isolates obtained from different clinical samples from the Hospital La Fe, Valencia, Spain (eight from blood culture, seven from oropharynx and seven from urine cultures). Candida parapsilosis ATCC 22019 and Candida krusei ATCC 6258 were used as quality controls. The minimum inhibitory concentration (MIC) was determined according to the European Committee on Antibiotic Susceptibility Testing (EUCAST) EDef 7.3.1 document. The interaction between citral and the rest of antifungal drugs was assessed by a checkerboard microdilution method. […] The in vitro interaction of the drug combinations was interpreted in terms of the fractional inhibitory concentration index (FICI) as follows: FICI < 1, synergistic; FICI equal to 1, additive; and FICI > 1, indifferent or antagonistic.
In general terms: Dilution methods test growth across graded concentrations, often in twofold steps.

For data set [3], the system named is clinical dermatophyte isolates. In words: Inhibition of dermatophyte biofilm formation. It counts as cell-based. The method, then: Materials and Methods: The study population consisted of 50 dermatophyte isolates that were collected from 2019 to 2020 from patients referred to the two mycology laboratory of Shiraz, Iran. The isolates were identified by ITS gene region sequencing. The suspension (equivalent to 0.5 McFarland) of the isolates was used to evaluate the ability of the isolates to form biofilms and also the effect of itraconazole, terbinafine and griseofulvin at concentrations of 2–32 μg/mL on inhibiting biofilm formation. Two optical microscope and a scanning electron microscope were used to study the microscopic structure of biofilms formed on the surface of 96-well plate wells.

For a further data set, the system named is Aspergillus tubingensis. Put plainly: EUCAST susceptibility. It counts as cell-based. Particulars: read-out: MIC. As for the experimental part: The fungus was identified as Aspergillus niger and liposomal amphotericine B was switched to anidulafungin pending susceptibility testing as the patient had pre-existing […] (eGFR CKD-EPI 40 mL/min/1.73 m²). […] Despite increasing the anidulafungin dosage to 200 mg daily and adequate voriconazol levels, serum galactomannan levels remained elevated (index 2.1 at discharge). […] Since no extracardiac sources were found and the patient did well clinically, they were discharched. Anidulafungin was switched to caspofungin to facilitate ongoing IV treatment in the outpatient setting. […] The patient died shortly after. Obduction was not performed.

The test system of the next data set is Asp. flavus. In words: Triazole resistance agar screening, four-well plate. Particulars: RPMI agar, 1 µg/mL, 29 isolates.
The test system of data set [4] is Aspergillus isolates (total). The data set is described as above. The conditions noted are these: RPMI agar, 1 µg/mL, 50 isolates.
Protocol: (§1) All the isolates were identified phenotypically. […] Fungal spores were suspended in normal saline (0.85%) and adjusted to 0.5 McFarland and 50 μL was plated in each well. […] Plates were incubated at 35–37 °C for 72 h in ambient air. The presence or absence of growth was observed visually at 24 h, 48 h, and 72 h.
Another data set concerns Candida isolates. The format is cell-based, Candida spp. Particulars: E-Test strips.
The subject of data set [5] is Cryptococcus neoformans var grubii. Put plainly: microbe, parasite or virus in culture. It counts as cell-based. The conditions noted are these: read-out: Minimal Inhibitory Concentration (MIC).
The test system of another data set is Candida auris isolates. Put plainly: microbe, parasite or virus in culture. The format is cell-based. The conditions noted are these: Candidozyma auris; […]; IQR given; read-out: median MIC.
Data set [6] has as its system C. albicans. Put plainly: […] candidemia survey, susceptibility according to CLSI. The format is cell-based, Candida albicans.
In data set [7] the test system is C. auris. In words: ARIA surveillance, CLSI M27 broth microdilution. The format is cell-based, Candida auris. The conditions noted are these: CDC tentative breakpoints.
The test system of data set [8] is C. albicans. Put plainly: In vitro fluconazole susceptibility, neonatal invasive candidiasis. The format is cell-based, Candida albicans.
A further data set concerns Candida non-albicans. Described as above. The format is cell-based.
For data set [9], the system named is CgCDR1, CgCDR2 and CgSNQ2 genes. In words: Real-time PCR of ATP-binding cassette transporter genes. The format is cell-based, Candida glabrata. On the technique in general: In qPCR the cycle at which signal appears reflects the starting amount.

Values after ≈ are worked out from the molar mass of the structure shown. Where only a bound is given, the exact number is not on record here.

Protocol for Asp. flavus: as §1

Turning to `C[C@@H]1[C@H](O)[C@@H](C)/C=C/C=C/C=C/C=C/C=C/C=C/C=C/[C@H](O[C@@H]2O[C@H](C)[C@@H](O)[C@H](N)[C@@H]2O)C[C@@H]2O[C@](O)(C[C@@H](O)C[C@@H](O)[C@H](O)CC[C@@H](O)C[C@@H](O)CC(=O)O[C@H]1C)C[C@H](O)[C@H]2C(=O)O` [amphotericin B], the MIC in [1] (A. terreus 81 and 31, each) was 1 µg/mL (≈ 1.08 µM); in data set [1] (A. terreus 134), 4 µg/mL (≈ 4.33 µM); in data set [1] (A. terreus 164) it was 0.5 µg/mL (≈ 0.541 µM); in the data set on C. glabrata, 0.38 µg/mL (≈ 0.411 µM); with C. auris [2] (Candidozyma auris, 22 clinical isolates), 0.25 µg/mL. Also, the “MIC of amphotericin B in combination with citral” value in the data set on C. auris [2] was 0.016 µg/mL.
Regarding `CCC(C)n1ncn(-c2ccc(N3CCN(c4ccc(OCC5COC(Cn6cncn6)(c6ccc(Cl)cc6Cl)O5)cc4)CC3)cc2)c1=O` (stereo not drawn) [itraconazole], the IC50 in data set [3] (inhibition of biofilm formation, read-out: mean concentrations of IC50) stood at 3.78 µg/mL (≈ 5.36 µM). Further, the “samples with IC50 in concentration <2” value in data set [3] (tested at 2–32 μg/mL) turned out to be 70%.
Consider `C[C@@H](c1ncncc1F)[C@](O)(Cn1cncn1)c1ccc(F)cc1F` [voriconazole], for which, in the data set on Aspergillus tubingensis, the MIC is 1 µg/mL (≈ 2.86 µM). For the same compound, the “isolates with growth only in voriconazole well, n (%)” value is given as 1 (3.44%) with Asp. flavus (48 h), 11 (37.93%) in the data set with Asp. flavus (72 h), 1 (2%) in data set [4] (48 h) and 16 (32%) in data set [4] (72 h).
On to `OC(Cn1cncn1)(Cn1cncn1)c1ccc(F)cc1F` [fluconazole], for which, in the data set with Candida isolates, the “comparative effectiveness among antifungals” value is “most effective antifungal”. The values for the MIC (in [5]; in the data set with Candida auris isolates) were more than 32 µg/mL and 48 µg/mL (≈ 157 µM), respectively. For the same compound, in the data set on C. albicans [6], the non-susceptibility worked out at 1%. In the data set on C. auris [7], this compound returned a susceptible of 56.3%. Besides, the dose-dependent susceptible pathogens in the data set with C. albicans [8] is 0%; in the data set on Candida non-albicans it was 6%. Besides, the “in vitro resistant pathogens” value was 7% in the data set on C. albicans [8] and 6% with Candida non-albicans. Moreover, in data set [9], the “expression of CgCDR1, CgCDR2 and CgSNQ2 genes” value is recorded as “over-expressed”. For the same compound, the “increase of clearance per 100 g increase in actual bodyweight” value (in vivo) was determined as 16%. Besides, the “decrease of clearance per 10 µmol/L increase in creatinine concentration” value (once postnatal age was above 1 week) was 12%. The compound also returned a volume of distribution (one-compartment model, typical infant of 0.87 kg) of 0.844 L. In addition, where the note is “one-compartment model, typical infant of 0.87 kg, serum creatinine 60 µmol/L, 41 preterm neonates, 146 plasma samples”, the estimated clearance was 0.0147 L/h.

Source of the values: PMC8624133, “10th Trends in Medical Mycology Held on 8 to 11 October 2021, Aberdeen, Scotland, Organized by the European Confederation of Medical Mycology (ECMM)” (Journal of Fungi, 2021).
